Results reported in patent publication US7989466B2, “Methods to inhibit or augment an inflammatory response” (Cambridge Enterprise Limited, priority 1999, dated 2011).
Like-named read-outs stand apart in the source and are kept apart here.

Legend:
[1] = system: TGFβ1 induced THP-1 migration; experiment: THP-1 trans-well migration assay, TGFβ1 as non-chemokine control; format: cell-based, human; conditions: n.s. = no statistically significant inhibition (p > 0.05)
Protocol: Any method suitable for counting cells can be used, for example, counting with a hemocytometer, incubation of the cells with MTT (see above), or FACS analysis. A negative control assay is also performed, using TGF-β or another non-chemokine chemoattractant (e.g., IL1β or TNFα). To assess whether the agent is cytotoxic, the same concentrations of agent are incubated with THP-1 cells. Agents which 1) are not cytotoxic at levels which inhibit migration, 2) are ineffective at inhibiting the negative control-induced migration, and 3) reduce or inhibit chemokine-induced THP-1 migration, are agents which fall within the scope of the invention.
Chemotaxis was induced in a 96-well disposable chemotaxis chamber fitted with a […] polycarbonate filter (PVP free, ChemoTX, Neuroprobe Inc., Cabin John). […] The framed filter was aligned with the holes in the corner of the filter frame and placed over the wells. […] Peptides were dissolved in Milli Q water and then serially diluted in culture medium. In most cases, the serially diluted peptides were added to the upper compartment of the chemotaxis chamber. The chamber was incubated at 37° C. in a humidified atmosphere of 5% CO2 for 4 hours.
After incubation, the cells were gently removed from the top of the filter with a pipette, 20 μl of 20 mM EDTA in PBS was added into each top well, and the mixture was incubated for 20 minutes at 4° C. The filter was then carefully flushed with media using a gentle flow, and removed. […] The curve was based on a two-fold dilution series of THP-1 cells (top standard 100,000 cells in 29 μl). […] The media was carefully aspirated from each well, and the converted dye was solubilized by 20 μl of DMSO.

[2] = system: chemokine-induced THP-1 migration; experiment: THP-1 trans-well migration assay, panel of chemokines (MCP-1, MIP1α, IL-8, SDF1α); format: cell-based, human; conditions: for CC SPECIFICITY: average inhibitory ED50 versus SDF1 and IL8 divided by average inhibitory ED50 versus MCP-1 and MIP1α; for Chemokine antagonist: active against at least one of IL-8, SDF-1α, MCP-1, MIP1α
[3] = system: SDF-1α induced THP-1 migration; experiment: THP-1 trans-well migration assay, SDF-1α as chemoattractant; format: cell-based, human; conditions: for EC50: read-out: ED50 versus SDF-1α, inhibition of THP-1 migration
Protocol: (§1) To determine whether an agent inhibits a chemokine-induced activity, such as macrophage recruitment, varying amounts of the agent are mixed with cells in the presence of a known chemoattractant. For example, a range of known concentrations of an agent, e.g., a chemokine peptide, is incubated with a defined number (e.g., 10^4-10^6) of human THP-1 monocyte cells in individual wells of the top compartment of a trans-well plate. Chemokine (such as MCP-1, MIP1α, IL8 or SDF-1α), at a concentration known to cause significant migration of THP-1 cells in the trans-well migration assay, is placed in the lower compartment (FIG. 1). Cells are then incubated at 37° C. for a period sufficient to allow migration, e.g., 4 hours. After incubation, the cells are gently removed from the top of the filter with a pipette, 20 μl of 20 mM EDTA in simple PBS is added into each top well, and incubated for 20 minutes at 4° C. The filter is carefully flushed with media using a gentle flow, and removed. A standard curve consisting of a two-fold dilution series of THP-1 cells (in 29 μl) is prepared to accurately quantify the number of cells that have migrated. Migrated cells are stained with 3 μl of MTT stock dye solution which is added directly into each well (5 mg/ml in RPMI-1640 without phenol red, Sigma Chemical Co.) and incubated at 37° C. for 4 hours. The media is carefully aspirated from each well, and the converted dye is solubilized by 20 μl of DMSO. Absorbance of converted dye is measured at a wavelength of 595 nm using an ELISA plate reader. The number of migrated cells in each well is then determined by interpolation of the standard curve (see also Imai et al., J. Biol. Chem., 272, 15036 (1997)).
(§2) For this assay, THP-1 cells were maintained at a density of 4×10^5 cells per ml in RPMI-1640 supplemented with 10% fetal calf serum+20 μM 2-mercaptoethanol. Chemotaxis was induced in a 96-well disposable chemotaxis chamber fitted with a […] polycarbonate filter (PVP free, ChemoTX, Neuroprobe Inc., Cabin John). Twenty-nine μl of chemoattractant (recombinant human chemokine; 50 ng/ml, i.e., 5.9 nM) or control (100 ng/ml TGFβ) was added to the lower compartment of each well. The framed filter was aligned with the holes in the corner of the filter frame and placed over the wells. Five×10^4 THP-1 cells in 25 μl of RPMI-1640 were added to the upper compartment. Peptides were dissolved in Milli Q water and then serially diluted in culture medium. In most cases, the serially diluted peptides were added to the upper compartment of the chemotaxis chamber. The chamber was incubated at 37° C. in a humidified atmosphere of 5% CO2 for 4 hours.
(§3) After incubation, the cells were gently removed from the top of the filter with a pipette, 20 μl of 20 mM EDTA in PBS was added into each top well, and the mixture was incubated for 20 minutes at 4° C. The filter was then carefully flushed with media using a gentle flow, and removed. A standard curve was prepared to accurately quantify the number of THP-1 cells that had migrated. The curve was based on a two-fold dilution series of THP-1 cells (top standard 100,000 cells in 29 μl). Cells which had migrated, and in separate wells, the cells in the standards, were stained with 3 μl of MTT stock solution which was added directly into each well (5 mg/ml in RPMI 1640 without phenol red, Sigma Chemical Co.) and incubated at 37° C. for 4 hours. The media was carefully aspirated from each well, and the converted dye was solubilized by 20 μl of DMSO. Absorbance of converted dye was measured at a wavelength of 595 nm using an ELISA plate reader. The number of cells that had migrated in each well was determined by interpolation of the standard curve.

[4] = system: IL8 induced THP-1 migration; experiment: THP-1 trans-well migration assay, IL-8 as chemoattractant; format: cell-based, human; conditions: n.s. = no statistically significant inhibition (p > 0.05); for EC50: read-out: ED50 versus IL8, inhibition of THP-1 migration
Protocol: as §1, §2, §3

[5] = system: MCP-1 induced THP-1 migration; experiment: THP-1 trans-well migration assay, MCP-1 as chemoattractant; format: cell-based, human; conditions: agent with the cells in the upper compartment, n.s. = no statistically significant inhibition (p > 0.05); for EC50: read-out: ED50 versus MCP-1, inhibition of THP-1 migration
Protocol: as §1, §2, §3

[6] = system: MIP1α induced THP-1 migration; experiment: THP-1 trans-well migration assay, MIP1α as chemoattractant; format: cell-based, human; conditions: for EC50: n.s. = no statistically significant inhibition (p > 0.05), read-out: ED50 versus MIP1α, inhibition of THP-1 migration
Protocol: as §1, §2, §3

[7] = molecular target: T1, Duffy Antigen Receptor for Chemokines (DARC) (Homo sapiens, UniProt Q16570); experiment: DARC binding: competition with 125I-MCP-1 on red blood cells
T1 sequence (Q16570 1-336): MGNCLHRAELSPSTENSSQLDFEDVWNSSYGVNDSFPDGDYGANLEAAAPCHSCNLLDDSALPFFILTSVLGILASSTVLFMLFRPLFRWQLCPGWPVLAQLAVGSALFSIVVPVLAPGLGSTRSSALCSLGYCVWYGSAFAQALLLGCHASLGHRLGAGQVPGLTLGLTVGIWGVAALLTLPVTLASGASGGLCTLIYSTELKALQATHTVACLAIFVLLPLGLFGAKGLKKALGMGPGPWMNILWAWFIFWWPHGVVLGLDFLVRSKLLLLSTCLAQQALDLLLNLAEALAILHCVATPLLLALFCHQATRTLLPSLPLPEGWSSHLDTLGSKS

[8] = molecular target: T2, Recombinant human latent TGF-β1 (Homo sapiens, UniProt P01137); experiment: Latent TGF-β1 activation ELISA (R2X capture); format: biochemical; parameters: key: −: A minus indicates no detectable activity in the assay; +: The number of pluses is a qualitative indicating of the activity of each peptide in each assay; ++: The number of pluses is a qualitative indicating of the activity of each peptide in each assay; +++: The number of pluses is a qualitative indicating of the activity of each peptide in each assay; ++++: The number of pluses is a qualitative indicating of the activity of each peptide in each assay; +++++: The number of pluses is a qualitative indicating of the activity of each peptide in each assay; conditions: test peptide at 100 nM, 37° C., 90 minutes
T2 construct: purchased R&D Systems; host or cells: CHO cells
T2 sequence (P01137 30-278 limits assumed): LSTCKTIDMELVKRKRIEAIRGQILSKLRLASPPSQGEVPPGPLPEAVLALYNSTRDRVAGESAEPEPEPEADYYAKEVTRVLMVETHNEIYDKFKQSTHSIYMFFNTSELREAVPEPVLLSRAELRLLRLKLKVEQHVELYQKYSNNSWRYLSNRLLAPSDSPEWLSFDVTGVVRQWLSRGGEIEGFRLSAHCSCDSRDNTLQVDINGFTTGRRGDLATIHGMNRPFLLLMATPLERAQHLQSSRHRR
Protocol: To test whether a KXK tripeptide activates TGF-beta, a direct ELISA-type assay can be used. Recombinant human latent TGF-β1 produced in CHO cells (R&D Systems) was incubated with the test activator. For example, 200 ng of latent TGF-β1 (at 20 μg/ml) was incubated with test peptide at 100 nM final concentration at 37° C. for 90 minutes. Following incubation, the TGF-β is incubated with the recombinant extracellular domain of the Type II TGF-β receptor (R2X) which binds only the active and not the latent forms of TGF-β1 (Clin. Chim. Acta, 235, 11 (1995)). For example, 1 μg of purified R2X is coated onto a Maxisorp ELISA plate well in 50 μl of 100 mM sodium carbonate for 2 hours at 4° C., and non-specific protein binding then blocked incubation with 5% sucrose 5% Tween-20 in Tris-buffered saline for 1 hour at room temperature.
The TGF-β sample is then incubated with the coated and blocked wells for 2 hours at room temperature with shaking. Wells are washed 3 times quickly with Tris-buffered saline containing 0.05% Tween-20 between each incubation. If any of the latent TGF-β1 has been activated by the incubation with test peptide, it is captured by the R2X, while remaining latent TGF-β1 is washed away. Captured active TGF-β1 is then detected by incubation with a suitable detection agent, such as a peroxidase conjugated polyclonal anti-TGF-beta antibody. For example, the wells are incubated with 200 μl of BDA19 chicken anti-TGF-β1 antibody coupled to horseradish peroxidase for 90 minutes at room temperature with shaking. Any bound peroxidase is then detected using a suitable chromogenic substrate (e.g., K-BLUE TMB substrate solution). The amount of active TGF-β generated is estimated by interpolation of a standard curve constructed using known amounts of active TGF-β1 (R&D Systems).

[9] = average inhibitory ED50 for inhibition of THP-1 migration induced by each of the chemokines, read-out: AVERAGE ED50
[10] = n.s. = no statistically significant inhibition (p > 0.05)
[11] = footnote f, KQK MCP-1, SEE MIP1α, KLK SDF1, KEN IL8, read-out: ED50 of a tripeptide against the one chemokine it is highly specific for
[12] = tripeptide at 100 μM, mean ± range, dash = no statistically significant reduction in migration

Substance	EC50 [6] [µM]	TGF-beta Activator [8]	ED50 versus TGFβ1, inhibition of THP-1 migration [1]	Chemokine antagonist [2]	also measured
EICADPSQKWVQ [Ser7peptide 3]	6		n.s.		EC50 [2, 9]: 5 µM; CC SPECIFICITY [2]: 0.5; EC50 [3, 10]: 4 µM; EC50 [4]: 3 µM; EC50 [5]: 7 µM
EICLDPKQKWIQ [Leu4Ile11peptide 3]	1		n.s.		more potent as an inhibitor of CC chemokines than peptide 3(1-12)[MCP-1] [2]: approximately 5 fold; EC50 ([2]; average inhibitory ED50 for inhibition of THP-1 migration induced by each of the chemokines, listed as Leu4Ile11peptide 3(1-12)[MCP-1], read-out: AVERAGE ED50): 2.3 µM; CC SPECIFICITY [2]: 2.0; EC50 [3, 10]: 3 µM; EC50 [4]: 3 µM; selectivity for receptors on THP-1 cells over DARC [7]: at least 20 fold; EC50 ([5]; listed as Leu4Ile11peptide 3(1-12)[MCP-1]): ~1 µM; EC50 [5]: 2 µM
EICLDPKQKWVQ [Leu4peptide 3]	7		n.s.		increase in potency as an inhibitor of CXC chemokines compared with peptide 3(1-12)[MCP-1] [2]: approximately 4 fold; EC50 [2, 9]: 5 µM; EC50 [3, 10]: 3 µM; EC50 [4]: 3 µM; EC50 [5]: 8 µM
KDK		−		+	
KEK		−		+	
KQKWVQ [Peptide 3[7-12]]	5		n.s.		EC50 ([2]; THP-1 migration, read-out: ED50 range, migration by all chemokines tested): 7 to 9 µM; EC50 [3, 10]: 6 µM; EC50 [4]: 6 µM; EC50 [5]: 7 µM
KTK		−		−	
SEE	6		n.s.		specificity for the cognate chemokine over all the other chemokines tested ([2]; KQK MCP-1, SEE MIP1-α): > 100 fold; CC SPECIFICITY [2]: >100; EC50 [2, 11]: 0.8 µM; ED50 versus SDF-1α, inhibition of THP-1 migration [3, 10]: n.s.; ED50 versus IL8, inhibition of THP-1 migration [4]: n.s.; ED50 versus MCP-1, inhibition of THP-1 migration [5]: n.s.; percentage inhibition of migration induced by MIP1α [6, 12]: 65 ± 3%

More lines, main results first:

EC50 [6] [µM]	TGF-beta Activator [8]	Substance	ED50 versus TGFβ1, inhibition of THP-1 migration [1]	Chemokine antagonist [2]	also measured
	++++	KFK		−	
	−	KGK		−	
	++	KIK		++	
	−	KKK		++++	
	+++	KLK		++++	CC SPECIFICITY [2]: <0.1; EC50 [2, 11]: 0.1 to 10 µM; percentage inhibition of migration induced by SDF1α [3, 12]: 87 ± 6%
	−	KSK		−	
	−	KWK		−	
	+++++	KYK		−	
